Source: EP4541797A1, “CAMPTOTHECIN DERIVATIVE, METHOD FOR PREPARING SAME, AND USE THEREOF” (Hangzhou Adcoris Biopharma Co., Ltd, priority 2022, dated 2024)
Like-named read-outs stand apart in the source and are kept apart here.

Assays:
SK-BR-3 cells = test: Inhibitory activity on cancer cell growth (CCK-8, 72 h), SK-BR-3 cells; assay type: cell-based; conditions: human breast adenocarcinoma cells SK-BR-3, 72 h incubation
Procedure: (§1) Human esophageal cancer cells OE33, human breast adenocarcinoma cells SK-BR-3 and human gastric cancer cells NCI-N87 were cultured in RPMI1640 (Cellmax) supplemented with 10% fetal bovine serum (Cellmax) respectively. Cells in the exponential growth phase were diluted to a concentration of 1×10^5cells/mL by culture medium and added to 96-well cell culture plates at 100µL per well, then incubated overnight in a 37°C incubator with 5% CO2. On the following day, the test compounds and control compounds were diluted to concentrations of 10000 nM, 2000 nM, 400 nM, 80 nM, 16 nM, 3.2 nM, 0.64 nM, and 0.13 nM by culture medium and added to the 96-well cell culture plates at 2µL per well, with three replicate wells for each concentration. Negative control and blank control groups without the addition of compounds were supplemented with 2µL of the dilution liquid per well. After the addition of the compounds, the plates were returned to the 37°C incubator with 5% CO2 to continue incubation for 72 h. After incubation, the cell culture plates were removed, and the culture medium was aspirated using a pipette. Then, 100µL of culture medium containing 10% CCK-8 was added to each well, and the plates were incubated at 37°C for 3 h. After incubation, the plates were removed, kept in the dark, and placed in ELISA plate. Absorbance was measured at 630nm as the reference wavelength and 450nm as the test wavelength. The IC50 values (Tables 1-3) were calculated using the four-parameter logistic regression method in GraphPad, based on the absorbance values. SN38 (7-ethyl-10-hydroxycamptothecin) and 10CPT (10-hydroxycamptothecin) were used as control compounds. For the IC50 values, wherein "++++" indicates an IC50 < 50 nM; "+++" indicates an IC50 between 50 nM and 100 nM; "++" indicates an IC50 between 100 nM and 500 nM; and "+" indicates an IC50 > 500 nM. Table 1: Inhibitory activity of compounds to inhibit the growth of OE33 cells

OE33 cells = test: Inhibitory activity on cancer cell growth (CCK-8, 72 h), OE33 cells; assay type: cell-based; conditions: human esophageal cancer cells OE33, 72 h incubation
Procedure: as §1

[1] = Homo sapiens, OE33, 72 h, read-out: IC50
[2] = Homo sapiens, SK-BR-3, 72 h, read-out: IC50

Compound CCc1c2c(nc3ccc(O)cc13)-c1cc3c(c(=O)n1C2)COC(=O)[C@]3(O)CC [SN38, 7-ethyl-10-hydroxycamptothecin, reference compound] has an IC50 (SK-BR-3 cells; read-out: IC50) of under 50 nM and an IC50 (OE33 cells; read-out: IC50) of under 50 nM.

Compound CC[C@@]1(O)C(=O)OCc2c1cc1n(c2=O)Cc2cc3c(CN4CCC5(CCNCC5)CC4)c(O)ccc3nc2-1 [Compound 29, 9-(3-(undeca-5,5-spirocyclo-3,9-diazane))methyl-10-hydroxycamptothecin] has an IC50 (OE33 cells; [1]) of 100 to 500 nM.

CC[C@@]1(O)C(=O)OCc2c1cc1n(c2=O)Cc2cc3c(CN(C)CCCCN)c(O)ccc3nc2-1 [Compound 11, 9-(N-4-aminobutyl-N-methylamino)methyl-10-hydroxycamptothecin] showed an IC50 (SK-BR-3 cells; Homo sapiens, SK-BR-3, 72 h) of 100 to 500 nM and an IC50 (OE33 cells; Homo sapiens, OE33, 72 h) of 100 to 500 nM.

In the case of CC[C@@]1(O)C(=O)OCc2c1cc1n(c2=O)Cc2cc3c(CNC(C)C)c(O)ccc3nc2-1 [Compound 21, 9-(isopropylamine)methyl-10-hydroxycamptothecin], the IC50 (SK-BR-3 cells; [2]) is reported as 100 to 500 nM and the IC50 (OE33 cells; [1]) is reported as 100 to 500 nM.

CC[C@@]1(O)C(=O)OCc2c1cc1n(c2=O)Cc2cc3c(CNCCC4CCNCC4)c(O)ccc3nc2-1 [Compound 30, 9-(piperidine-4-ethylamine)methyl-10-hydroxycamptothecin] was tested, and the IC50 (OE33 cells; Homo sapiens, OE33, 72 h) was 100 to 500 nM.

Compound CC[C@@]1(O)C(=O)OCc2c1cc1n(c2=O)Cc2cc3c(CNN4CCCCC4)c(O)ccc3nc2-1 [Compound 26, 9-(piperidine-1-amine)methyl-10-hydroxycamptothecin] has an IC50 (OE33 cells; [1]) of 100 to 500 nM.

Compound CC[C@@]1(O)C(=O)OCc2c1cc1n(c2=O)Cc2cc3c(CN4CCN(C(C)=O)CC4)c(O)ccc3nc2-1 [Compound 7, 9-(1-(4-acetylpiperazine))methyl-10-hydroxycamptothecin] has an IC50 (SK-BR-3 cells; [2]) of 50 to 100 nM and an IC50 (OE33 cells; [1]) of 50 to 100 nM.

Work on CC[C@@]1(O)C(=O)OCc2c1cc1n(c2=O)Cc2cc3cc(O)ccc3nc2-1 [Compound 10CPT, 10-hydroxycamptothecin, reference compound] yielded an IC50 (SK-BR-3 cells; Homo sapiens, SK-BR-3, 72 h) of under 50 nM and an IC50 (OE33 cells; Homo sapiens, OE33, 72 h) of under 50 nM.

Compound CC[C@@]1(O)C(=O)OCc2c1cc1n(c2=O)Cc2cc3c(CN4CCC(C(=O)OC)CC4)c(O)ccc3nc2-1 [Compound 33, 9-(1-piperidine-4-methylformate)methyl-10-hydroxycamptothecin] has an IC50 (OE33 cells; [1]) of 100 to 500 nM.

Work on CC[C@@]1(O)C(=O)OCc2c1cc1n(c2=O)Cc2cc3c(CNN4CCOCC4)c(O)ccc3nc2-1 [Compound 18, 9-(morpholin-4-amine)methyl-10-hydroxycamptothecin] yielded an IC50 (SK-BR-3 cells; Homo sapiens, SK-BR-3, 72 h) of 50 to 100 nM and an IC50 (OE33 cells; Homo sapiens, OE33, 72 h) of 100 to 500 nM.

CC[C@@]1(O)C(=O)OCc2c1cc1n(c2=O)Cc2cc3c(CN(C)C4CCC(O)CC4)c(O)ccc3nc2-1 (stereo partly drawn) [Compound 16, 9-(N-methyl-trans-4-hydroxycyclohexylamine)methyl-10-hydroxycamptothecin] showed an IC50 (OE33 cells; Homo sapiens, OE33, 72 h, numeric value or bound, read-out: IC50) of 0.221 nM.

For CCNCc1c(O)ccc2nc3c(cc12)Cn1c-3cc2c(c1=O)COC(=O)[C@]2(O)CC [Compound 20, 9-(ethylamine)methyl-10-hydroxycamptothecin], the IC50 (OE33 cells; Homo sapiens, OE33, 72 h) was 100 to 500 nM.

For CC[C@@]1(O)C(=O)OCc2c1cc1n(c2=O)Cc2cc3c4c(ccc3nc2-1)OCN(CC(F)(F)F)C4 [Compound 40, 3-(N-(2,2,2-trifluoroethyl))-1.3-oxazino[5,6][9,10]camptothecin], the IC50 (OE33 cells; [1]) was 100 to 500 nM.

CC[C@@]1(O)C(=O)OCc2c1cc1n(c2=O)Cc2cc3c4c(ccc3nc2-1)OCN(N1CCOCC1)C4 [Compound 22, 3-(N-morpholine)-1.3-oxazino[5,6][9,10]camptothecin] gave an IC50 (OE33 cells; [1]) of 100 to 500 nM.

For CC[C@@]1(O)C(=O)OCc2c1cc1n(c2=O)Cc2cc3c(CN(C)NC(=O)OC(C)(C)C)c(O)ccc3nc2-1 [Compound 23, 9-(1-methyl-2-Boc-hydrazine)methyl-10-hydroxycamptothecin], the IC50 (OE33 cells; [1]) was under 50 nM.

CC[C@@]1(O)C(=O)OCc2c1cc1n(c2=O)Cc2cc3c(CN(C)CCCN)c(O)ccc3nc2-1 [Compound 25, 9-(1-methyl-3-aminopropylamine)methyl-10-hydroxycamptothecin] was tested, and the IC50 (OE33 cells; [1]) was 100 to 500 nM.

CC[C@@]1(O)C(=O)OCc2c1cc1n(c2=O)Cc2cc3c(CN4CCC(OC)CC4)c(O)ccc3nc2-1 [Compound 5, 9-(1-(4-methoxypiperidine))methyl-10-hydroxycamptothecin] showed an IC50 (SK-BR-3 cells; [2]) of over 500 nM and an IC50 (OE33 cells; [1]) of 50 to 100 nM.

CC[C@@]1(O)C(=O)OCc2c1cc1n(c2=O)Cc2cc3c(CN(C)CCO)c(O)ccc3nc2-1 [Compound 12, 9-(N-methylhydroxyethylamino)methyl-10-hydroxycamptothecin] was tested, and the IC50 (SK-BR-3 cells; Homo sapiens, SK-BR-3, 72 h) was 100 to 500 nM and the IC50 (OE33 cells; Homo sapiens, OE33, 72 h) was 100 to 500 nM.

In the case of CC[C@@]1(O)C(=O)OCc2c1cc1n(c2=O)Cc2cc3c(CN4CCC(C(N)=O)CC4)c(O)ccc3nc2-1 [Compound 8], the IC50 (SK-BR-3 cells; Homo sapiens, SK-BR-3, 72 h) is reported as 100 to 500 nM and the IC50 (OE33 cells; Homo sapiens, OE33, 72 h) is reported as 100 to 500 nM.

CC[C@@]1(O)C(=O)OCc2c1cc1n(c2=O)Cc2cc3c(CN[C@H]4CC[C@H](OC)CC4)c(O)ccc3nc2-1 [Compound 42, 9-(trans-4-methoxycyclohexylamine)methyl-10-hydroxycamptothecin] showed an IC50 (OE33 cells; [1]) of 100 to 500 nM.

CC[C@@]1(O)C(=O)OCc2c1cc1n(c2=O)Cc2cc3c(CN4CCN(C(=O)C5CC5)CC4)c(O)ccc3nc2-1 [Compound 6, 9-(1-(4-cyclopropylcarbonylpiperazine))methyl-10-hydroxycamptothecin] gave an IC50 (SK-BR-3 cells; Homo sapiens, SK-BR-3, 72 h) of 50 to 100 nM and an IC50 (OE33 cells; Homo sapiens, OE33, 72 h) of 100 to 500 nM.

For CC[C@@]1(O)C(=O)OCc2c1cc1n(c2=O)Cc2cc3c(CNCC4CCOCC4)c(O)ccc3nc2-1 [Compound 43, 9-(tetrahydropyran-4-methylamine)methyl-10-hydroxycamptothecin], the IC50 (OE33 cells; Homo sapiens, OE33, 72 h) was 100 to 500 nM.

For CC[C@@]1(O)C(=O)OCc2c1cc1n(c2=O)Cc2cc3c(CNC4CCOCC4)c(O)ccc3nc2-1 [Compound 37, 9-(tetrahydropyran-4-amine)methyl-10-hydroxycamptothecin], the IC50 (OE33 cells; [1]) was 100 to 500 nM.

Work on CC[C@@]1(O)C(=O)OCc2c1cc1n(c2=O)Cc2cc3c(CN(C)CCN)c(O)ccc3nc2-1 [Compound 13, 9-(N-methyl-N-aminoethylamino)methyl-10-hydroxycamptothecin] yielded an IC50 (OE33 cells; [1]) of 100 to 500 nM.

CC[C@@]1(O)C(=O)OCc2c1cc1n(c2=O)Cc2cc3c(CN(C)[C@@H](C)C(=O)O)c(O)ccc3nc2-1 [Compound 36, 9-(N-methyl-L-alanine)methyl-10-hydroxycamptothecin] showed an IC50 (OE33 cells; [1]) of 100 to 500 nM.

Compound CC[C@@]1(O)C(=O)OCc2c1cc1n(c2=O)Cc2cc3c(CN4CCNCC4)c(O)ccc3nc2-1 [Compound 2, 9-(1-piperazine)methyl-10-hydroxycamptothecin] has an IC50 (SK-BR-3 cells; Homo sapiens, SK-BR-3, 72 h) of 50 to 100 nM and an IC50 (OE33 cells; Homo sapiens, OE33, 72 h) of 50 to 100 nM.

Compound CC[C@@]1(O)C(=O)OCc2c1cc1n(c2=O)Cc2cc3c(CN4CCC(C(=O)O)CC4)c(O)ccc3nc2-1 [Compound 34, 9-(1-piperidine-4-carboxyllic acid)methyl-10-hydroxycamptothecin] has an IC50 (OE33 cells; [1]) of over 500 nM.

With CC[C@@]1(O)C(=O)OCc2c1cc1n(c2=O)Cc2cc3c(CN[C@@H](C)C(=O)OC(C)(C)C)c(O)ccc3nc2-1 [Compound 35, 9-(L-alaninetert-butyl ester)methyl-10-hydroxycamptothecin] the IC50 (OE33 cells; [1]) was 50 to 100 nM.

CC[C@@]1(O)C(=O)OCc2c1cc1n(c2=O)Cc2cc3c(CN4CCC[C@H]4C(=O)OC(C)(C)C)c(O)ccc3nc2-1 [Compound 31, 9-(L-prolinetert-butyl ester)methyl-10-hydroxycamptothecin] gave an IC50 (OE33 cells; [1]) of 100 to 500 nM.

Work on CC[C@@]1(O)C(=O)OCc2c1cc1n(c2=O)Cc2cc3c(CN4CCC(ON)CC4)c(O)ccc3nc2-1 [Compound 3, 9-(1-(4-aminoxypiperidine))methyl-10-hydroxycamptothecin] yielded an IC50 (OE33 cells; [1]) of 100 to 500 nM.

CC[C@@]1(O)C(=O)OCc2c1cc1n(c2=O)Cc2cc3c(CN(C)CC4CCNCC4)c(O)ccc3nc2-1 [Compound 28, 9-(N-methyl(piperidine-4-methyl)amine)methyl-10-hydroxycamptothecin] was tested, and the IC50 (OE33 cells; Homo sapiens, OE33, 72 h) was 100 to 500 nM.

Work on CC[C@@]1(O)C(=O)OCc2c1cc1n(c2=O)Cc2cc3c(CN4CCC(N)CC4)c(O)ccc3nc2-1 [Compound 1, 9-(1-(4-aminopiperidine))methyl-10-hydroxycamptothecin] yielded an IC50 (SK-BR-3 cells; [2]) of 50 to 100 nM and an IC50 (OE33 cells; [1]) of 100 to 500 nM.

CC[C@@]1(O)C(=O)OCc2c1cc1n(c2=O)Cc2cc3c(CN(C)C4CCOCC4)c(O)ccc3nc2-1 [Compound 14, 9-(N-methyltetrahydropyran-4-amine)methyl-10-hydroxycamptothecin] gave an IC50 (OE33 cells; Homo sapiens, OE33, 72 h) of 100 to 500 nM.

Compound CC[C@@]1(O)C(=O)OCc2c1cc1n(c2=O)Cc2cc3c(CN4CCN(C(=O)CO)CC4)c(O)ccc3nc2-1 [Compound 46, 9-(1-(4-hydroxyacetylpiperazine))methyl-10-hydroxycamptothecin] has an IC50 (OE33 cells; Homo sapiens, OE33, 72 h) of 100 to 500 nM.
